Results published in PubChem BioAssay (NCI).
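Exposure lasted 48 hours, with cells grown in 96-well plates and compounds tested at five concentrations. GI50 = concentration required for 50% inhibition of growth. TGI marks complete inhibition of growth.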

Key:
Assay in all cases: growth of human tumour cells (NCI), 48 h
[1] = system: 786-0 renal
[2] = system: A549 NSCLC
[3] = system: ACHN renal
[4] = system: BT-549 breast
[5] = system: CAKI-1 renal
[6] = system: COLO 205 colon
[7] = system: DU-145 prostate
[8] = system: EKVX NSCLC
[9] = system: HCT-116 colon
[10] = system: HCT-15 colon
[11] = system: HL-60(TB) leukemia
[12] = system: HOP-62 NSCLC
[13] = system: HS 578T breast
[14] = system: HT29 colon
[15] = system: IGROV1 ovarian
[16] = system: K-562 leukemia
[17] = system: KM12 colon
[18] = system: LOX IMVI melanoma
[19] = system: M14 melanoma
[20] = system: MALME-3M melanoma
[21] = system: MCF7 breast
[22] = system: MDA-MB-231 breast
[23] = system: MDA-MB-435
[24] = system: MOLT-4 leukemia
[25] = system: NCI-H226 lung
[26] = system: NCI-H23 lung
[27] = system: NCI-H460 lung
[28] = system: NCI-H522 lung
[29] = system: NCI/ADR-RES ovarian
[30] = system: OVCAR-3 ovarian
[31] = system: OVCAR-5 ovarian
[32] = system: OVCAR-8 ovarian
[33] = system: PC-3 prostate
[34] = system: RXF 393 renal
[35] = system: SF-268 CNS
[36] = system: SF-295 CNS
[37] = system: SF-539 CNS
[38] = system: SK-MEL-28 melanoma
[39] = system: SK-MEL-5 melanoma
[40] = system: SK-OV-3 ovarian
[41] = system: SN12C renal
[42] = system: SNB-19 CNS
[43] = system: SNB-75 CNS
[44] = system: SR leukemia
[45] = system: SW-620 colon
[46] = system: T-47D breast
[47] = system: TK-10 renal
[48] = system: U251 CNS
[49] = system: UACC-257 melanoma
[50] = system: UACC-62 melanoma
[51] = system: UO-31 renal
[52] = system: A498 renal
[53] = system: CCRF-CEM leukemia
[54] = system: HCC-2998 colon
[55] = system: HOP-92 NSCLC
[56] = system: OVCAR-4 ovarian
[57] = system: RPMI-8226 leukemia
[58] = system: SK-MEL-2 melanoma

C/C(=C\CO)CC/C=C(\C)CNc1ccccc1
TGI [1]: > 100 µM
TGI [2]: > 100 µM
TGI [3]: > 100 µM
TGI [4]: 55.2 µM
TGI [5]: > 100 µM
TGI [6]: > 100 µM
TGI [7]: > 100 µM
TGI [8]: 93.7 µM
TGI [9]: > 100 µM
TGI [10]: > 100 µM
TGI [11]: > 100 µM
TGI [12]: > 100 µM
TGI [13]: 97.8 µM
TGI [14]: 47.9 µM
TGI [15]: > 100 µM
TGI [16]: > 100 µM
TGI [17]: > 100 µM
TGI [18]: > 100 µM
TGI [19]: > 100 µM
TGI [20]: 66.9 µM
TGI [21]: > 100 µM
TGI [22]: > 100 µM
TGI [23]: > 100 µM
TGI [24]: 25.7 µM
TGI [25]: > 100 µM
TGI [26]: 27.1 µM
TGI [27]: > 100 µM
TGI [28]: 98.5 µM
TGI [29]: > 100 µM
TGI [30]: > 100 µM
TGI [31]: > 100 µM
TGI [32]: > 100 µM
TGI [33]: > 100 µM
TGI [34]: > 100 µM
TGI [35]: > 100 µM
TGI [36]: > 100 µM
TGI [37]: > 100 µM
TGI [38]: > 100 µM
TGI [39]: 34.1 µM
TGI [40]: > 100 µM
TGI [41]: > 100 µM
TGI [42]: > 100 µM
TGI [43]: 54.6 µM
TGI [44]: 79.5 µM
TGI [45]: > 100 µM
TGI [46]: 81 µM
TGI [47]: 65.4 µM
TGI [48]: > 100 µM
TGI [49]: 91.8 µM
TGI [50]: > 100 µM
TGI [51]: > 100 µM

C=C1C(=O)c2sccc2C(c2ccc(OC)c(OC)c2)C1COC(C)=O (centres undefined)
GI50 [1]: 0.297 µM
TGI [1]: 3.99 µM
GI50 [52]: 2.13 µM
TGI [52]: 7.2 µM
GI50 [2]: 3.25 µM
TGI [2]: 11.5 µM
GI50 [3]: 1.86 µM
GI50 [4]: 2.11 µM
TGI [4]: 4.79 µM
GI50 [5]: 2.1 µM
TGI [5]: 6.57 µM
GI50 [53]: 0.0661 µM
TGI [53]: 0.777 µM
GI50 [6]: 2.25 µM
TGI [6]: 4.89 µM
GI50 [7]: 0.761 µM
TGI [7]: 2.04 µM
GI50 [8]: 8.37 µM
TGI [8]: 21.3 µM
GI50 [54]: 2.89 µM
TGI [54]: 7.56 µM
GI50 [9]: 1.62 µM
TGI [9]: 10.3 µM
GI50 [10]: 2.03 µM
GI50 [11]: 2.98 µM
TGI [11]: > 100 µM
GI50 [12]: 6.54 µM
TGI [12]: 15.7 µM
GI50 [55]: 2.46 µM
TGI [55]: 6.91 µM
GI50 [13]: 2.54 µM
TGI [13]: 8.4 µM
GI50 [14]: 1.36 µM
TGI [14]: 4.01 µM
GI50 [15]: 2.27 µM
TGI [15]: 5.67 µM
GI50 [16]: 0.2 µM
TGI [16]: > 29.7 µM
GI50 [17]: 1.21 µM
TGI [17]: > 25.7 µM
GI50 [18]: 0.173 µM
TGI [19]: 3.1 µM
GI50 [20]: 1.5 µM
TGI [20]: 6.41 µM
GI50 [21]: 0.953 µM
TGI [21]: 2.98 µM
GI50 [22]: 0.551 µM
TGI [22]: 2.48 µM
GI50 [23]: 1.92 µM
TGI [23]: 6.18 µM
GI50 [24]: 0.219 µM
TGI [24]: 0.733 µM
GI50 [25]: 2.93 µM
TGI [25]: 8.56 µM
GI50 [26]: 1.54 µM
TGI [26]: 4.94 µM
GI50 [27]: 3.72 µM
TGI [27]: 14 µM
GI50 [28]: 1.13 µM
TGI [28]: 4.04 µM
GI50 [29]: 2.36 µM
GI50 [30]: 1.67 µM
TGI [30]: 5.79 µM
GI50 [56]: 4.81 µM
TGI [56]: 19.5 µM
GI50 [31]: 2.42 µM
TGI [31]: 9.29 µM
GI50 [32]: 2.74 µM
TGI [32]: 8.14 µM
GI50 [33]: 1.3 µM
TGI [33]: 2.81 µM
TGI [57]: 0.0366 µM
GI50 [34]: 0.595 µM
TGI [34]: 1.99 µM
GI50 [35]: 3.44 µM
TGI [35]: 12.9 µM
GI50 [36]: 4.43 µM
TGI [36]: 16.5 µM
GI50 [37]: 1.61 µM
TGI [37]: 3.27 µM
GI50 [58]: 10.8 µM
TGI [58]: 23 µM
GI50 [38]: 2.15 µM
TGI [38]: 4.42 µM
GI50 [39]: 1.9 µM
TGI [39]: 4.74 µM
GI50 [40]: 5.46 µM
TGI [40]: 20 µM
GI50 [41]: 1.33 µM
TGI [41]: 3.24 µM
GI50 [42]: 8.47 µM
TGI [42]: 32.7 µM
GI50 [43]: 8.39 µM
TGI [43]: 28.8 µM
GI50 [45]: 0.656 µM
TGI [45]: 2.51 µM
GI50 [46]: 2.24 µM
TGI [46]: 5.77 µM
GI50 [47]: 1.34 µM
TGI [47]: 4.85 µM
GI50 [48]: 1.62 µM
GI50 [49]: 1.93 µM
TGI [49]: 5.77 µM
GI50 [50]: 1.43 µM
TGI [50]: 3.17 µM
GI50 [51]: 1.81 µM
TGI [51]: 3.39 µM

COC(=O)C1=C(OC(=O)/C(=C/c2ccccc2)c2ccccc2)C(C(=O)OC)[C@@]2(O)[C@@H](C(=O)OC)[C@H](C)C[C@@H]1[C@@H]2C(=O)OC (some centres undefined)
TGI [1]: > 100 µM
TGI [52]: > 100 µM
TGI [2]: > 100 µM
TGI [3]: > 100 µM
TGI [4]: > 100 µM
TGI [5]: > 100 µM
TGI [53]: > 100 µM
TGI [6]: > 100 µM
TGI [7]: > 100 µM
TGI [8]: > 100 µM
TGI [54]: > 100 µM
TGI [9]: > 100 µM
TGI [10]: > 100 µM
TGI [11]: > 100 µM
TGI [12]: > 100 µM
TGI [13]: > 100 µM
TGI [14]: > 100 µM
TGI [15]: > 100 µM
TGI [16]: > 100 µM
TGI [17]: > 100 µM
TGI [18]: > 100 µM
TGI [19]: > 100 µM
TGI [20]: > 100 µM
TGI [21]: > 100 µM
TGI [22]: > 100 µM
TGI [23]: > 100 µM
TGI [25]: > 100 µM
TGI [26]: > 100 µM
TGI [27]: > 100 µM
TGI [28]: > 100 µM
TGI [29]: > 100 µM
TGI [30]: > 100 µM
TGI [56]: > 100 µM
TGI [31]: > 100 µM
TGI [32]: > 100 µM
TGI [33]: > 100 µM
TGI [57]: > 100 µM
TGI [34]: > 100 µM
TGI [35]: > 100 µM
TGI [36]: > 100 µM
TGI [37]: > 100 µM
TGI [58]: > 100 µM
TGI [38]: > 100 µM
TGI [39]: > 100 µM
TGI [40]: > 100 µM
TGI [41]: > 100 µM
TGI [42]: > 100 µM
TGI [43]: > 100 µM
TGI [44]: > 100 µM
TGI [45]: > 100 µM
TGI [46]: > 100 µM
TGI [47]: > 100 µM
TGI [48]: > 100 µM
TGI [49]: > 100 µM
TGI [50]: > 100 µM
TGI [51]: > 100 µM
